Test results from ChEMBL document CHEMBL5550115, “Histone deacetylase (HDAC) inhibitor specificity determinants are preserved in a class of dual HDAC/non-covalent proteasome inhibitors” (Bioorg Med Chem, 2024).

Experiments:
[1] = target: 20S proteasome; experiment: Inhibition of human 20S proteasome chymotrypsin-like activity using Suc-LLVY-Glo as a […] substrate measured after 10 mins by luminescence based analysis; format: protein-complex assay
[2] = system: A-375; experiment: Antiproliferative activity against human A-375 cells assessed as inhibition of cell growth measured after 48 hrs by cell titer-blue cell viability assay; format: functional, cell-based; settings: A-375, 48 h
[3] = system: RPMI-8226; experiment: Antiproliferative activity against human RPMI-8226 cells assessed as inhibition of cell growth measured after 72 hrs by MTS method; format: functional, cell-based; settings: RPMI-8226, 72 h
[4] = target: T1, Proteasome Macropain subunit MB1 (Homo sapiens, UniProt P28074); experiment: Inhibition of human 20S proteosome beta5c subunit using Ac-WLA-AMC as substrate by microplate reader analysis
T1 sequence (P28074 whole entry): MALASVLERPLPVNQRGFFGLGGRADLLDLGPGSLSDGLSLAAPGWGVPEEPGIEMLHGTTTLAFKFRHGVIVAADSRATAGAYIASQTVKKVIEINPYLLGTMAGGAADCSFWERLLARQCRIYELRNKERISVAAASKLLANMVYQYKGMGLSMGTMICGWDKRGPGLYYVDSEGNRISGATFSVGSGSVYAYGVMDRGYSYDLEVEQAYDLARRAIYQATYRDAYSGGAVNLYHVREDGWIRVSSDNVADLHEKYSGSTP

[5] = target: T2, Protein deacetylase HDAC6 (Homo sapiens) (UniProt Q9UBN7); experiment: Inhibition of HDAC6 (unknown origin) at 1 uM incubated for 1 hr by fluorescence based microplate reader analysis relative to control
T2 sequence (whole entry): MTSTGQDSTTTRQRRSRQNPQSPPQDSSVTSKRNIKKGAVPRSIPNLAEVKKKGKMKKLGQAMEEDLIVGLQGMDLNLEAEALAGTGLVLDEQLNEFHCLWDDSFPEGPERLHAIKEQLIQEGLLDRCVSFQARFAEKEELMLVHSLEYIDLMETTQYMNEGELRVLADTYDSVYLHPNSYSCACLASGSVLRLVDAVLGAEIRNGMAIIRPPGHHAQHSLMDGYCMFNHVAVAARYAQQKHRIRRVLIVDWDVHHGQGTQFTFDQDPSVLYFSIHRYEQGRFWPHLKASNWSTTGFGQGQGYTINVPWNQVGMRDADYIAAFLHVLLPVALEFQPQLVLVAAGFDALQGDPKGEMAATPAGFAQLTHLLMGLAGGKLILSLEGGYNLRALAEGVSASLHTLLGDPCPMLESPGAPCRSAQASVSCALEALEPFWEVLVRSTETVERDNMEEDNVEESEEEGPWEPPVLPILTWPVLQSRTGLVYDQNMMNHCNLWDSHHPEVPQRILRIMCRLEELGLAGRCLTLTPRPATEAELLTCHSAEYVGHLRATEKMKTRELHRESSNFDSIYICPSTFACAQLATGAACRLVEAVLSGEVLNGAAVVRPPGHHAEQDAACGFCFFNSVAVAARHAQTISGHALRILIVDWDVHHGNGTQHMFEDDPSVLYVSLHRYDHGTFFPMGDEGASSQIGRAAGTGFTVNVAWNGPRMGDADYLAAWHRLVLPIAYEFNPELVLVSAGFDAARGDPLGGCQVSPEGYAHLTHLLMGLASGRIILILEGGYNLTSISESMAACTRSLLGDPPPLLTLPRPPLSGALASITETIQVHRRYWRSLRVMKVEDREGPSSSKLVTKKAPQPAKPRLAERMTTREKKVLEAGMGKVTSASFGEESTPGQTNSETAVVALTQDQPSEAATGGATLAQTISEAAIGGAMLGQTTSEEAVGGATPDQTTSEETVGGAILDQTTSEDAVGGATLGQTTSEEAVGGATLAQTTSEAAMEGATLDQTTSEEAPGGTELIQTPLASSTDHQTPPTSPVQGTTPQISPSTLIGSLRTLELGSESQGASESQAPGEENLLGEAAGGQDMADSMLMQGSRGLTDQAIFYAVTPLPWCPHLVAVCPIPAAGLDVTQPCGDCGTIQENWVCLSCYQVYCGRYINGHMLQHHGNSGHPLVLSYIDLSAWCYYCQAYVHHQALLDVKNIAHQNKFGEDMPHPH

[6] = target: Histone deacetylase 1 (Homo sapiens) (UniProt Q13547); experiment: Inhibition of HDAC1 (unknown origin) at 1 uM incubated for 1 hr by fluorescence based microplate reader analysis relative to control
Histone deacetylase 1 (Homo sapiens), sequence (Q13547 whole entry): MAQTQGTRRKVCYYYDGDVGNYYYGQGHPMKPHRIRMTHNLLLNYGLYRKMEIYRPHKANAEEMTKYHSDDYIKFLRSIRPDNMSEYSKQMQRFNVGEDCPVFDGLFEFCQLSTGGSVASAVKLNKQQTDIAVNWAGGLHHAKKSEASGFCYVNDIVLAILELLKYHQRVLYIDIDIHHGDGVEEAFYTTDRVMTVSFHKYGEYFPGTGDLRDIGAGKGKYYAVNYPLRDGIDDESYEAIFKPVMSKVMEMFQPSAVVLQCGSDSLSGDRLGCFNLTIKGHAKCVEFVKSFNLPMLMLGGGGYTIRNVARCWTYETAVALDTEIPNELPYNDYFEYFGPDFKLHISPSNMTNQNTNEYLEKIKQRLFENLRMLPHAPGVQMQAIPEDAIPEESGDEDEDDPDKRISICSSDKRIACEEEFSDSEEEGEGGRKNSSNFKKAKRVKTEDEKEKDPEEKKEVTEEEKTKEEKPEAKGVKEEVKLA

Compound | IC50 [1] [µM] | IC50 [2] [µM] | IC50 [3] [µM] | IC50 [4] [µM] | inhibition [5] [%] | inhibition [6] [%]
C[C@H](NC(=O)[C@H](CC(=O)NCC(C)(C)C)NC(=O)CCC(=O)Nc1ccc(C(=O)NO)cc1)C(=O)NCc1ccc(F)cc1F | > 30 | > 50 | > 50 |  |  | 
C[C@H](NC(=O)[C@H](CC(=O)NCC(C)(C)C)NC(=O)CCCCCCC(=O)NO)C(=O)NCc1ccc(F)cc1F | > 30 |  | > 50 |  |  | 
C[C@H](NC(=O)[C@H](CC(=O)NCC(C)(C)C)NC(=O)c1ccc(C(=O)NO)cc1)C(=O)NCc1ccc(F)cc1F | > 30 |  | > 50 |  |  | 
C[C@H](NC(=O)[C@H](CC(=O)NCC(C)(C)C)NC(=O)c1c[nH]c2ccccc12)C(=O)NCc1ccc(F)cc1F | 0.729 | 8.87 | 11.5 | 0.0024 |  | 
C[C@H](NC(=O)[C@H](CC(=O)NCC(C)(C)C)NC(=O)c1ccc(/C=C/C(=O)NO)cc1)C(=O)NCc1ccc(F)cc1F | 0.199 | 1.83 | 7.03 |  |  | 
C[C@H](NC(=O)[C@H](CC(=O)NCC(C)(C)C)NC(=O)c1ccc(C(=O)Nc2ccccc2N)cc1)C(=O)NCc1ccc(F)cc1F |  | > 50 | > 50 |  | 13 | 65
